Measurements taken from US10877026B2, “Blood brain barrier models and methods to generate and use the same” (Purdue Research Foundation, priority 2016, dated 2020).
Where two headings read alike, the source gives them in different places.

What was measured:
direct contact coculture = assay: MTT cell viability assay; format: cell-based, human; settings: n=6
Procedure: Cell viability in the presence of various HEPES concentrations was inferred by the mitochondrial oxidation of 3-(4,5-dimethylthiazol-2-yl)-2,5-diphenyltetrazolium bromide (MTT) dye. The direct contact coculture was plated in a 96-well plate following the same methods as stated above. On Day 7 post hCMEC/D3 plating, media containing HEPES was removed and replaced with 190 μL, fresh media and 10 μL of 5 mg/mL MTT and incubated at 37° C. with 5% CO2 for 4 hours. MTT was then removed and replaced with 200 μL DMSO and left agitating at room temperature for 1 hour. Absorbance at 570 nm was determined using a plate reader. Cell viability was normalized to 10 mM HEPES control. Assays were performed with n=6.

[1] = test system: co-culture of astrocytes and pericytes; assay: Mannitol permeability across mono- or co-cultures of astrocytes and pericytes; format: in vitro ADME
[2] = test system: direct-contact triculture of astrocytes, pericytes and hCMEC/D3 cells
in vitro [3] = settings: human
in vitro [4] = settings: human; remark: listed apart in the source
Procedure: (§1) For human astrocyte monocultures, 4×10^4 cells were seeded onto Transwells® coated with 2 μg/cm^2 poly-L-lysine and grown for 9 days prior to permeability studies.
(§2) Before all permeability studies, cells were washed twice with PBS before equilibrating in HBSS for 20 minutes shortly before the study. After study initiation, 100 μL samples were taken at 15, 30, 45, 60, and 90 minute time points. 4 mL of scintillation cocktail was added for analysis by scintillation counting.

[5] = Apparent permeability across human astrocyte monoculture; format: in vitro ADME; settings: human; astrocytes grown in monoculture
Procedure: as §1
as §2, with “. Before” for “Before”

[6] = test system: human astrocyte monolayers; assay: as above; format: in vitro ADME
Procedure: as §1
as §2, with “. Before” for “Before”

hCMEC/D3 monoculture = assay: in vitro
Procedure: as §1, §2

[7] = test system: direct contact coculture of human astrocytes and hCMEC/D3 cells
Pgp = target: T1, Pgp (Homo sapiens, UniProt P08183); assay: Drug-interaction of elacridar and digoxin in BBB culture models; format: cell-based; settings: triculture versus hCMEC/D3 monoculture or astrocyte-pericyte co-culture, FIG. 17
T1 construct: endogenous in cells; host or cells: hCMEC/D3 monoculture, astrocyte-pericyte coculture and triculture
T1 sequence (P08183 whole entry): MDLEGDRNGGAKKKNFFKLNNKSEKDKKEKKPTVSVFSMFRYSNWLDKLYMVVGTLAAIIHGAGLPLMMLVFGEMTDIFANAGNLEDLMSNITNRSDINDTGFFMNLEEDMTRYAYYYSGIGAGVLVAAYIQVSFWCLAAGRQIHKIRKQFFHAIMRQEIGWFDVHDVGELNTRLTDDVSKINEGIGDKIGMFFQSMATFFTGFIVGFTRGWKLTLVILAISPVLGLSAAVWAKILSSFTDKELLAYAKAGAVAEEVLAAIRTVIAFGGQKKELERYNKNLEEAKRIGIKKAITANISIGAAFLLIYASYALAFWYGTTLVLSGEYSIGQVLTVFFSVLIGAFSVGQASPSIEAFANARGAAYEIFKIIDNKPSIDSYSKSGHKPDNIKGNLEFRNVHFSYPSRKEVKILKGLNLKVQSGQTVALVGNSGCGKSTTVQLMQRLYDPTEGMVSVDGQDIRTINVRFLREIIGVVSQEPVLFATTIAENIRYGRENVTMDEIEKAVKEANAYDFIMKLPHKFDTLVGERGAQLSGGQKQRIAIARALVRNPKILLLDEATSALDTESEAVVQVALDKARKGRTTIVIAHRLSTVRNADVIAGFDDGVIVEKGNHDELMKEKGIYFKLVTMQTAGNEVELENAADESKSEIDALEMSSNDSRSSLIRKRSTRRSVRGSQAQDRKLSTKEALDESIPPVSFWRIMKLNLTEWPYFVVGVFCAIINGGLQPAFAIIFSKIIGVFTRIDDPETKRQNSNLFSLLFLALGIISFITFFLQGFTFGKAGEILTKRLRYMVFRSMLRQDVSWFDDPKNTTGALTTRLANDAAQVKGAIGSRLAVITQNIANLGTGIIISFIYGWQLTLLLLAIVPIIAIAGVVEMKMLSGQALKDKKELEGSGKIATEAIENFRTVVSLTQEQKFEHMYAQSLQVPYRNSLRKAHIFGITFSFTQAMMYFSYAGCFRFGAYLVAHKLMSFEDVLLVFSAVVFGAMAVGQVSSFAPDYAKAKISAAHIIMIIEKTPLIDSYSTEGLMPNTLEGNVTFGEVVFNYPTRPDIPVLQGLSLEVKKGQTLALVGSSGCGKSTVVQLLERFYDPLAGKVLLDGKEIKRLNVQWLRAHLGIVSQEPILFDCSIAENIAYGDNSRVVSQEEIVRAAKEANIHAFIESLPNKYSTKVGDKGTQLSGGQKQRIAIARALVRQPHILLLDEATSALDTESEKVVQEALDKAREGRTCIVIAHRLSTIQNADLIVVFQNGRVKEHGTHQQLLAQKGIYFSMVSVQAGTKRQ

[8] = test system: direct-contact triculture of astrocytes, pericytes and hCMEC/D3 cells; assay: Permeability across direct-contact triculture BBB model; settings: hCMEC/D3 monoculture as control, n=5, FIG. 9
[9] = test system: direct contact coculture of human astrocytes and hCMEC/D3 cells; assay: Apparent permeability across direct contact coculture on Transwell; settings: for apparent permeability, reproducibility: different passage number

**Q.** Which “change in cell viability (MTT)” value (direct contact coculture; 25 mM HEPES in comparison to 10 mM HEPES control) does the source give for O=S(=O)(O)CCN1CCN(CCO)CC1 [HEPES, 4-(2-hydroxyethyl)-1-piperazineethanesulfonic acid] here?
**A.** −8.2±2.0%

**Q.** And the “change in cell viability (MTT)” value (direct contact coculture; 50 mM HEPES compared to 10 mM HEPES control)?
**A.** −28.4±2.6%

**Q.** For OC[C@@H](O)[C@@H](O)[C@H](O)[C@H](O)CO [Mannitol], which effective permeability ([1]; co-culture of astrocytes and pericytes versus astrocytes monoculture, FIG. 8B, n=6) is on record?
**A.** lower in comparison to monoculture of astrocytes

**Q.** What about the apparent permeability ([1]; co-culture versus astrocytes or pericytes alone, FIG. 8A) of the same compound?
**A.** lower in the co-culture of astrocytes and pericytes

**Q.** What about the “decrease in permeability, mono- versus tri-culture” value ([2]; human, 90 min, 0.25 μCi/mL) of the same compound?
**A.** 1.5 fold

**Q.** What about the Papp A→B at 90 min, 0.25 μCi/mL (in vitro [3]; Papp) of the same compound?
**A.** 15.2 ± 0.69 ×10⁻⁶ cm/s

**Q.** What about the Papp A→B at 90 min, 0.25 μCi/mL (in vitro [3]; apparent permeability) of the same compound?
**A.** 15.2 ± 0.7 ×10⁻⁶ cm/s

**Q.** Which results are given for CC(C)NCC(O)COc1cccc2ccccc12 (stereo not drawn) [Propranolol]?
**A.** Papp A→B at 90 min, 0.25 μCi/mL (in vitro [4]): 19.1 ± 1.9 ×10⁻⁶ cm/s; Papp A→B at 90 min, 0.25 μCi/mL [5]: 45.8 ± 4.1 ×10⁻⁶ cm/s; fold lower permeability in hCMEC/D3 and direct contact coculture than in astrocyte monoculture [6]: ~3 fold; transcellular permeability across the BBB-triculture relative to L-histidine [2]: significantly slower than L-histidine; Papp A→B at 90 min, 0.25 μCi/mL (in vitro [3]; apparent permeability): 16.1 ± 0.4 ×10⁻⁶ cm/s

**Q.** Which “transcellular permeability across the BBB-triculture relative to L-histidine” value [2] does the source give for Cc1ncc(C[n+]2csc(CCO)c2C)c(N)n1 [Thiamine] here?
**A.** significantly slower than L-histidine

**Q.** For NC(N)=O [Urea], which apparent permeability (hCMEC/D3 monoculture) is on record?
**A.** 2.96±0.11 ×10^−5 cm/s

**Q.** What about the Papp [7] of the same compound?
**A.** 2.43 ± 0.155 ×10^−5 cm/s

**Q.** What about the apparent permeability [7] of the same compound?
**A.** 2.43±0.15 ×10^−5 cm/s

**Q.** With COc1cc2c(cc1OC)CN(CCc1ccc(NC(=O)c3cccc4c(=O)c5cccc(OC)c5[nH]c34)cc1)CC2 [elacridar] as the compound, how does the “inhibition of Pgp function (digoxin)” value (Pgp) read?
**A.** more difficult to inhibit Pgp function in the triculture

**Q.** For CC(=O)O[C@H]1C(=O)[C@@]2(C)[C@H]([C@H](OC(=O)c3ccccc3)[C@]3(O)C[C@H](OC(=O)[C@H](O)[C@@H](NC(=O)c4ccccc4)c4ccccc4)C(C)=C1C3(C)C)[C@]1(OC(C)=O)CO[C@@H]1C[C@@H]2O [paclitaxel], which “transcellular permeability across the BBB-triculture relative to L-histidine” value [2] is on record?
**A.** significantly slower than L-histidine

**Q.** What does the source list for Inulin?
**A.** apparent permeability (hCMEC/D3 monoculture; hCMEC/D3 monoculture, n=3): 8.46±0.02 ×10^−6 cm/s; decrease in permeability, mono- versus tri-culture [8]: 8 fold; Papp ([9]; Table 4, values match the direct contact coculture): 0.754 ± 0.030 ×10^−5 cm/s; apparent permeability ([9]; direct contact coculture, n=3): 7.55±0.3 ×10^−6 cm/s; apparent permeability, reproducibility ([9]; first additional independent experiment): 7.51±0.01 ×10^−6 cm/s; apparent permeability, reproducibility ([9]; second additional independent experiment): 7.94±0.03 ×10^−6 cm/s
